One test concerns the target HIV-1 protease (Human immunodeficiency virus type 1 group M subtype B, UniProt P04585). Kind of test: Fluorescence HIV-1 Protease Inhibitor Assay (Pandex). The class given is biochemical. The arrangement: made in house; host or cells: E. coli K12 L507/pHP10D (NRRL B-18560). The protocol:
A. Preparation of Protease and Gag Fractions
Lyophils of E. coli K12 L507/pHP10D were obtained from the Northern Regional Research Laboratory, Peoria, Ill. 61604, under the accession number NRRL B-18560 (deposited Nov. 14, 1989). The lyophils were decanted into tubes containing 10 ml LB medium (10 g Bacto-tryptone, 5 g Bacto-yeast extract, and 10 g aqueous sodium chloride per liter; the pH was adjusted to 7.5 and incubated at 32° C. overnight).
A small portion of the overnight culture was placed on LB-agar (LB medium with 15 g/L Bacto-agar) plates containing 12.5 micrograms/ml tetracycline in a manner so as to obtain a single colony isolate of E. coli K12 L507/pHP10D. The single colony obtained was inoculated into 10 ml of LB medium containing 12.5 micrograms/ml tetracycline and incubated overnight at 32° C. with vigorous shaking. The 10 ml overnight culture was inoculated into LB medium containing 12.5 micrograms/ml tetracycline and incubated at 32° C. with vigorous shaking until the culture reached mid-log phase. […]
3. Preparation of Protease Fraction
A culture of E. coli K12 L507/pHP10D was grown to mid-log phase at 32° C. in LB media containing 12.5 micrograms/ml tetracycline. The cultivation temperature was quickly elevated to 40° C. to induce gene expression, and the cells were allowed to grow for 2.5 hours at this temperature before the culture was quickly chilled on ice. The cells were centrifuged and the cell pellet was resuspended in 20 ml of 50 mmol MES buffer (pH 6.0) containing 1 mmol EDTA, 1 mmol DTT, 1 mmol PMSF and 10% glycerol (“Buffer A”). Cells were lysed by sonication using a Fischer Model 300 Dismembrator and a microtip probe. Following centrifugation at 27,000×g, the supernatant was diluted to a total volume of 60 ml with Buffer A and loaded onto a 2.0×19 cm QAE-Sepharose column (1 ml/min, 4° C.), that had been equilibrated in Buffer A. The column was washed isocratically for 180 min and then eluted with a gradient eluent of […] aqueous sodium chloride in Buffer A over 120 min. Enzymatic activity was measured by HPLC using the synthetic peptide Ser-Gln-Asn-Tyr-Pro-Ile-Val as described in Margolin et al., Biochem. Biophys. Res. Commun., 167, 554-560 (1990); the production of the p1 peptide (Ser-Gln-Asn-Tyr) was measured.
The active fractions were combined, adjusted to […] 1.2M in ammonium sulfate, and applied to a 2.0×18 cm hexyl agarose column that had been equilibrated in Buffer A containing 1.2M ammonium sulfate. The sample was loaded at a flow rate of 1 ml/min at 4° C., washed with the equilibration buffer for 240 min (1 ml/min) and then eluted using a reverse linear gradient of 1.2-0M ammonium sulfate in Buffer A for 120 min at the same flow rate. The column was then washed isocratically in Buffer A for 120 min.
The active fractions were combined, concentrated to 10 ml using an Amicon stirred cell with a YM-10 membrane and then applied to a MonoS cation exchange column (1.0×10 cm) that had been equilibrated in Buffer A. The sample was loaded at a flow rate of 1 ml/min at 25° C. After washing isocratically for 30 min, the protease was eluted using a linear gradient of 0-0.45M aqueous sodium chloride in Buffer A over 40 min. The column was washed isocratically in Buffer A containing 0.45M aqueous sodium chloride for 30 minutes.
The active fractions were combined and concentrated to 200 microliters using an Amicon stirred cell and a YM-10 membrane and then the protease was applied to a Superose 6 size exclusion column equilibrated in Buffer A containing 0.1M aqueous sodium chloride.

For test [1], the system named is Viral SN123 infected CEM cells.
Method: Purpose: To determine IC50 CC50 for compounds:
Media A [1% DMSO] (100 microliters DMSO+9.9 ml media A)
CEM cells @ [1×10^4] cells/ml (4 plate=40 ml) (6 plate=60 ml)
(need 70 microliters of each)
A-D at [10 mM] in 100% DMSO
4 or 6 u-bottom 96-well plates
4 flat bottom 96-well plates for dilutions
8-10 boxes of sterile costar tips
Approximately 10 reagent trays
1000 cells/well=1×10^4 cells/ml=1000 cells/100 microliters 200 microliters=total volume in a well
Cell Preparation and Plating of Cells, Media A and Media A (1% DMSO)
a. Number a 96-well tissue culture plate for each compound tested, one for a control plate, and one for the control compound.
b. Count cells on hemacytometer and resuspend them in 40 ml or 80 ml of Media A at a concentration of [1×10^4]0 cells/ml.
Counting Cells on a Hemacytomer:
Label two 1.8 ml nuc tubes 1 and 2.
Put 0.5 ml of well mixed CEM cells (in growth phase) in tube 1.
Put 50 micoliters PBS and 40 microliters of trypan blue into tube 2.
Mix up the cells in tube 1 then remove 10 microliters of cells and put them into tube 2.
Mix well in tube 2, then remove 10 microliters of the stained cells and put them on the hemacytometer.
Count the number of cells in the center square of the hemacytometer with the microscope set on 10×.
The concentration of the stock CEM's in cells/ml is as follows:
Cells counted×1×10^5=Concentration of CEM's in [cells/ml].
c. Add 200 microliters Media A to: A1 of places 2-6. These are Blanks. A4-H4 of plate 1. These are Blanks.
d. Add 5 microlicers Media A to all wells of Rows A-D of plates 2-6 except A1 (the top half of each plate).
e. Add 50 microliters of Media A to wells A1-D3 of Plate 1 (the top half of the plate).
f. Add 50 microliters Media A[l% DMSO] to all wells of Columns 1-3 of plate 1.
This puts 1000 cells/well.
h. Put plates in an incubator while doing drug dilutions.
Preparation Control and Test Drugs
(1) Put 60 microliters of DMSO into all wells of Columns 2-12, Rows A-E.
(3) Put 70 microliters of A [10 mM] at 100% DMSO into well B1.
(4) Put 70 microliters of B [10 mM] at 100% DMSO into well C1.
(5) Put 70 microliters of C [10 mM] at 100% DMSO into well D1.
(6) Put 70 microliters of D [10 mM] at 100% DMSO into well E1.
Change tips before each dilution.
(1) In rows A-E of another plate make a row for the first 1:10 dilution to correspond to each compound's 100% DMSO row.
A into Row B for the first 1:10 dilution.
B into Row C for the first 1:10 dilution.
C into Row D for the first 1:10 dilution.
D into Row E for the first 1:10 dilution.
(2) Put 180 microliters of media A into all wells of rows A-E corresponding to the 100% DMSO rows. 2.5 ml needed per row.
(3) Remove 20 microliters from all wells of each row of the 100% DMSO rows and transfer it to the corresponding 1:10 row.
(1) Make a plate for every 3 compounds to be tested.
Use 20 ml of media A per plate.
(3) Transfer 25 microliters of each compound from the row in the 1:10 dilution to the corresponding two rows on the 1:100 dilution plate changing tips before each transfer.
Addition of Viral SN123 to Plates
a. Thaw Sn123 in 37° C. water bath for approximately 10 minutes.
b. Dilute Sn123 1:16 by adding 1 ml of Sn123 to 15 ml of media A.
c. Add 50 microliters of Sn123 [1:16] to wells E1-H12 of plates 2-6 and to wells E1-H3 of plate 1.
Addition of Drugs to Plates
a. Add 50 microliters of the control and test drugs from the rows in the 1:100 dilution plates to the appropriate rows in the final plates (changing tips before each transfer). One row in the 1:100 plate will do 4 rows in the final plate. Leave A1 blank.
b. Incubate all plates 7 days at 37° C. 5% CO2.
c. Do Xtt protocol on day 7 as follows:
d. Preparation of Xtt/PMS Solution: (4 plate=20 ml) (6 plate=30 ml)
100 microliters [100 mM] PMS+4.9 ml PBS=PMS at [2 mM]
(2) Heat 500 ml of H2O in microwave for 5 minutes on high.
(3) Put 20 or 30 ml of phenol red RPMI in a 50 ml centrifuge tube.
(4) Put the RPMI in the beaker of hot water.
(5) Add 20 or 30 mg of XTT to the warmed up RPMI.
The mark [2] stands for this setting: normalized to positive control (=1.0), * = a calculated average, read-out: Fluorescence Assay IC50 in ng/mL (converted).
Where [3] appears, read: value as run, 35B value of the same run in footnote or parentheses, read-out: Pandex IC50 ng/ml (converted).
The mark [4] stands for this setting: Human immunodeficiency virus 1, CCRF-CEM, read-out: Whole cell IC50 nM, CEM cells, values in parentheses are 35B in same assay.
[5] abbreviates: Human immunodeficiency virus 1, CCRF-CEM, read-out: Whole cell IC90 nM, CEM cells, values in parentheses are 35B in same assay.
[6] abbreviates: Human immunodeficiency virus 1, CCRF-CEM, read-out: Whole cell IC50 nM.
[7] abbreviates: Human immunodeficiency virus 1, CCRF-CEM, read-out: Whole cell IC90 nM.

Counter-ions that a name gives are not always drawn. Like-named read-outs stand apart in the source and are kept apart here.

For the molecule `Cc1cnccc1C(=O)NC(CSc1ccccc1)C(O)CN1CC2CCCCC2CC1C(=O)NC(C)(C)C` (stereo not drawn) [Example 30, [3S-(3R*,4aR*,8aR*,2′S*,3′S*)]-2-[2′-Hydroxy-3′-phenylthiomethyl-4′-aza-5′-oxo-5′-(3″-methyl-pyrid-4″-yl)phentyl] decahydroisoquinoline-3-N-t-butylcarboxamide], the IC50 on HIV-1 protease (setting [2]) was 7.6 nM; at HIV-1 protease (setting [3]) it was 9.05 nM; in test [1] (setting [4]) it was 367 nM. The IC90 (as a rule, the concentration needed for an effect of 90%) in test [1] (setting [5]) was found to be 736 nM.

As for `Cc1c(OP(=O)(O)O)cccc1C(=O)N[C@@H](CSc1ccccc1)[C@H](O)CN1C[C@H]2CCCC[C@H]2C[C@H]1C(=O)NC(C)(C)C.Cl` (relative stereo) [Example 80, [3S-(3R*, 4aR*, 8aR*, 2′S*, 3′S*)]-2-[2′-Hydroxy-3′-phenylthiomethyl-4′-aza-5′-oxo-5′-(2″-methyl-3″-Hydroxyphenyl)pentyl]-decahydroisoquinoline-3-N-t-butyl carboxamide 3″-Dihydrogen Phosphate Hydrochloride], the “Pandex % at 22” value on HIV-1 protease (at 22 (ng/ml), wrapped cell) was 0.3% at. For the same molecule, the IC50 at HIV-1 protease (setting [3]) is 5.85 nM; in test [1] (setting [4]) it was 8.99 nM. For the same molecule, the concentration for an effect of 90% (IC90) in test [1] (setting [5]) came to 27.9 nM.

As for `Cc1c(F)cccc1C(=O)NC(Cc1ccccc1)C(O)CN1CC2CCCCC2CC1C(=O)NC(C)(C)C` (stereo not drawn) [Example 7, [3S-(3R*,4aR*,8aR*,2′S*,3′R*)]-2-[2′-Hydroxy-3′-phenylmethyl-4′-aza-5′-oxo-5′-(2″-methyl-3″-fluorophenyl)pentyl] decahydroisoquinoline-3-N-t-butylcarboxamide], the IC50 is 474 nM on HIV-1 protease (setting [2]) and 323 nM in test [1] (setting [4]).

For `Cc1c(O)cccc1C(=O)N[C@@H](CSc1ccc(F)cc1)[C@H](O)CN1C[C@H]2CCCC[C@H]2C[C@H]1C(=O)NC(C)(C)C` (relative stereo) [Example 92, [3S-(3R*, 4aR*, 8aR*, 2′S*, 3′R*)]-2-(2′-Hydroxy-3′-(4′″-fluoro)phenylthiomethyl-4′-aza-5′-oxo-5′-(2″-methyl-3″-hydroxyphenyl)pentyl]-decahydroisoquinoline-3-N-t-butyl carboxamide], the values for the IC50 (at HIV-1 protease (setting [3]); in test [1] (setting [6])) were under 0.273 nM and 2.01 nM, respectively. Further, the IC90 in test [1] (setting [7]) came to 57 nM.

With “[2S-(2R*,2′S*,3′S*)]-1-[2′-Hydroxy-3′-phenylthiomethyl-4′-aza-5′-oxo-5′-(quinolin-5″-yl)pentyl]-4-(pyrid-3′″-ylmethyl)piperazine-2N-t-butylcarboxamide [Example 34]”, the “Fluorescence Assay IC50” value at HIV-1 protease (normalized to positive control (=1.0), * = a calculated average) is given as 4.5 ng/mL. Moreover, the “Pandex IC50 ng/ml” value on HIV-1 protease (value as run, 35B value of the same run in footnote or parentheses) is 5.4^b ng/ml. Moreover, the IC50 in test [1] (read-out: Whole cell IC50 nM, CEM cells, values in parentheses are 35B in same assay) turned out to be 149 nM. The IC90 in test [1] (read-out: Whole cell IC90 nM, CEM cells, values in parentheses are 35B in same assay) came to 564 nM.

Consider `Cc1ccccc1C(=O)NC(CSc1ccccc1)C(O)CN1CC2CCCCC2CC1C(=O)NC(C)(C)C` (stereo not drawn) [Example 29, [3S-(3R*,4aR*,8aR*,2′S*,3′S*)]-2-[2′-Hydroxy-3′-phenylthiomethyl-4′-aza-5′-oxo-5′-(2″-methyl-phenyl)pentyl] decahydroisoquinoline-3-N-t-butylcarboxamide], for which the IC50 on HIV-1 protease (setting [2]) is 3.08 nM; at HIV-1 protease (setting [3]), 3.62 nM; in test [1] (setting [4]), 1590 nM. Further, the IC90 in test [1] (setting [5]) was found to be 4460 nM.

As for `Cc1c(O)cccc1C(=O)N[C@@H](CSc1ccccc1)[C@H](O)CN1CCN(Cc2cccnc2)C[C@H]1C(=O)NC(C)(C)C` [Example 19], the IC50 on HIV-1 protease (setting [2]) was 0.528 nM; at HIV-1 protease (setting [3]) it was 0.693 nM; in test [1] (setting [4]), 16.1 nM. In test [1] (setting [5]), the 90% effect concentration (IC90) came out at 42 nM.

Turning to `CC(C)(C)NC(=O)[C@@H]1CN(Cc2cccnc2)CCN1C[C@@H](O)[C@H](CSc1ccccc1)NC(=O)c1cccc2c1CCCN2` [Example 33, [3S-(2R*,2′S*,3′S*)]-1-[2′-Hydroxy-3′-phenylthiomethyl-4′-aza-5′-oxo-5′-(1″,2″,3″,4″-tetrahydroquinolin-5″-yl)pentyl]-4-(pyrid-3′″-ylmethyl)piperazine-2N-t-butylcarboxamide], the IC50 on HIV-1 protease (setting [2]) is 2.69 nM; at HIV-1 protease (setting [3]) it was 3.17 nM; in test [1] (setting [4]), 39.5 nM. Moreover, the IC90 in test [1] (setting [5]) was 200 nM.

`CC(C)(C)NC(=O)C1CC2CCCCC2CN1CC(O)C(CSc1ccccc1)NC(=O)c1cccc2c1CCCN2` (stereo not drawn) [Example 32, [3S-(3R*,4aR*,8aR*,2′S*,3′S*)]-2-[2′-Hydroxy-3′-phenylthiomethyl-4′-aza-5′-oxo-5′-(1″,2″,3″,4″-tetrahydroquinolin-5″-yl)pentyl] decahydroisoquinoline-3-N-t-butylcarboxamide]: the IC50 at HIV-1 protease (setting [2]) was 0.877 nM; at HIV-1 protease (setting [3]) it was 2.53 nM; in test [1] (setting [4]) it was 539 nM. The IC90 in test [1] (setting [5]) was determined as 2310 nM.

For `CC(C)(C)NC(=O)C1CC2CCCCC2CN1CC(O)C(CSc1ccccc1)NC(=O)c1cccc2ncccc12` (stereo not drawn) [Example 31, [3S-(3R*,4aR*,8aR*,2′S*,3′S*)]-2-[2′-Hydroxy-3′-phenylthiomethyl-4′-aza-5′-oxo-5′-(quinolin-5″-yl)pentyl] decahydroisoquinoline-3-N-t-butylcarboxamide], the IC50 on HIV-1 protease (setting [2]) was 2.04 nM; on HIV-1 protease (setting [3]), 5.94 nM; in test [1] (setting [4]), 430 nM. Further, in test [1] (setting [5]), the concentration for an effect of 90% (IC90) was 884 nM.

Consider `Cc1c(O)cccc1C(=O)N[C@@H](CSc1ccccc1)[C@H](O)CN1C[C@H]2CCS[C@H]2C[C@H]1C(=O)NC(C)(C)C` (relative stereo) [Example 74 I, [6S-(6R*, 3aS*, 7aR*, 2′S*, 3′S*)]-2-[2′-Hydroxy-3′-phenylthiomethyl-4′-aza-5′-oxo-5′-(2″-methyl-3″-hydroxyphenyl)pentyl]-octahydrothieno[3,2-c]pyridine-6-N-t-butyl carboxamide methanesulfonic acid salt], for which the IC50 on HIV-1 protease (Table 2, read-out: IC50 (Pandex)) was 0.3 nM; in test [1] (setting [6]), 4.06 nM. In test [1] (setting [7]), the 90% effect concentration (IC90) is 9.74 nM.

For `Cc1c(O)cccc1C(=O)N[C@@H](CSc1ccccc1)[C@H](O)CN1C[C@H]2CCCC[C@H]2C[C@H]1C(=O)NC(C)(C)C` (relative stereo) [Example 75, [3S-(3R*, 4aR*, 8aR*, 2′S*, 3′S*)]-2-[2′-Hydroxy-3′-phenylthiomethyl-4′-aza-5′-oxo-5′-(2″-methyl-3″-hydroxyphenyl)pentyl]-decahydroisoquinoline-3-N-t-butyl carboxamide methanesulfonic acid salt], the IC50 in test [1] (setting [4]) is 14.5 nM. Moreover, the concentration for an effect of 90% (IC90) in test [1] (setting [5]) was determined as 56.1 nM.

(Values after US20030216569A1, “Method of making HIV protease inhibitors” (priority 1993, published 2003).)
